Measurements: US8486931B2, “Substituted oxindole compounds” (Abbott GmbH & Co. KG, priority 2007, dated 2013)

These molecules were tested against T1, human vasopressin V1b receptor (Homo sapiens, UniProt P47901) (assay: Vasopressin V1b receptor binding assay). Conditions: membranes from CHO-K1 cells with stably expressed human V1b receptors, 1.5 nM 3H-AVP displacement; with more than one stereogenic center: the diastereomer with stronger affinity.
T1 construct: expressed in transfected cells; host or cells: CHO-K1 (cell line hV1b-3H2_CHO), membrane preparation
T1 sequence (P47901 1-424): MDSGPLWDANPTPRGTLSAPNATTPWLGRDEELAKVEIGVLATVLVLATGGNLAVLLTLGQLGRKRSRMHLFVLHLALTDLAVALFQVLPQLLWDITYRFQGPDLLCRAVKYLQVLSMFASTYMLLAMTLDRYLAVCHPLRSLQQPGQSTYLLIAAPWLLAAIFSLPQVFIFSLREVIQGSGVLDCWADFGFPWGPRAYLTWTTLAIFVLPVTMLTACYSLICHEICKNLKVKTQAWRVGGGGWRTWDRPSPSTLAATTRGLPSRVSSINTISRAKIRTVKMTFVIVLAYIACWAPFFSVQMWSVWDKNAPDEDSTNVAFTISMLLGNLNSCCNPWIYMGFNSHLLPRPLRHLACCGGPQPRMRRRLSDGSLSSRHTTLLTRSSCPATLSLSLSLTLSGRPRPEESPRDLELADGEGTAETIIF
Summary of the method: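 Membranes bearing human V1b receptor incubated 60 min at room temperature in 50 mM Tris, 10 mM MgCl2, 0.1% BSA, pH 7.4, 2% DMSO, triplicate.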
In the case of `CCOc1ccc(OC)cc1C1(N2CCN(C3CCN(C)CC3)CC2)C(=O)N(S(=O)(=O)c2ccc(OC)c3cccnc23)c2ccc(C#N)cc21` (racemic) [Example 161, (±)-5-Cyano-3-(2-ethoxy-5-methoxy-phenyl)-1-(5-methoxy-quinoline-8-sulfonyl)-3-[4-(1-methyl-piperidin-4-yl)-piperazin-1-yl]-2,3-dihydro-1H-indol-2-one], the Ki is reported as under 10 nM. In the case of `CCOc1ccc(OC)cc1C1(N2CCN(c3ccncc3)CC2)C(=O)N(S(=O)(=O)c2cccc3cccnc23)c2ccc(C#N)cc21` (racemic) [Example 13, (±)-5-Cyano-3-(2-ethoxy-5-methoxyphenyl)-3-(4-pyridin-4-yl-piperazin-1-yl)-1-(quinoline-8-sulfonyl)-2,3-dihydro-1H-indol-2-one], the Ki is reported as under 10 nM. In the case of `CCOc1nc(Cl)ccc1C1(N2CCN(c3ccncc3)CC2)C(=O)N(S(=O)(=O)c2cccc3cccnc23)c2ccc(C#N)cc21` (racemic) [Example 24, (±)-5-Cyano-3-(6-chloro-2-ethoxypyridin-3-yl)-3-(4-pyridin-4-ylpiperazin-1-yl)-1-(quinoline-8-sulfonyl)-2,3-dihydro-1H-indol-2-one], the Ki is reported as under 10 nM. With `COc1ccc(OC)c(C2(N3CCN(c4ccncc4)CC3)C(=O)N(S(=O)(=O)c3cccc4c(C)ccnc34)c3ccc(C#N)cc32)c1` (racemic) [Example 50, (±)-5-Cyano-3-(2,5-dimethoxyphenyl)-1-(4-methylquinoline-8-sulfonyl)-3-(4-pyridin-4-yl-piperazin-1-yl)-2,3-dihydro-1H-indol-2-one] the Ki was 10 to 50 nM. `CCOc1ccccc1C1(N2CCN(c3ccncc3)CC2)C(=O)N(S(=O)(=O)c2ccc(OC)c3cccnc23)c2ccc(C#N)cc21` (racemic) [Example 25, (±)-5-Cyano-3-(2-ethoxyphenyl)-1-(5-methoxyquinoline-8-sulfonyl)-3-(4-pyridin-4-yl-piperazin-1-yl)-2,3-dihydro-1H-indol-2-one] showed a Ki of under 10 nM. “(+)-5-Cyano-3-(2-ethoxy-5-methoxy-phenyl)-1-(5-methoxy-pyridine-2-sulfonyl)-3-[4-(4-methyl-piperazin-1-yl)-piperidin-1-yl]-2,3-dihydro-1H-indol-2-one [Example 158]” showed a Ki of under 10 nM. `CCOc1nc(Cl)ccc1C1(N2CCCN(c3ccncc3)CC2)C(=O)N(S(=O)(=O)c2ccc(OC)cn2)c2ccc(C#N)cc21` (racemic) [Example 168, (±)-5-Cyano-3-(6-chloro-2-ethoxy-pyridin-3-yl)-1-(5-methoxy-pyridine-2-sulfonyl)-3-(4-pyridin-4-yl-[1,4]diazepan-1-yl)-2,3-dihydro-1H-indol-2-one] was tested, and the Ki was 10 to 50 nM. With `COc1ccc(OC)c(C2(N3CCN(c4ccncc4)CC3)C(=O)N(S(=O)(=O)c3cccc4cccnc34)c3ccc(OC)cc32)c1` (racemic) [Example 59, (±)-3-(2,5-Dimethoxyphenyl)-5-methoxy-3-(4-pyridin-4-ylpiperazin-1-yl)-1-(quinoline-8-sulfonyl)-1,3-dihydroindol-2-one] the Ki was under 10 nM. `CCOc1nc(Cl)ccc1C1(N2CCN(C3CCNCC3)CC2)C(=O)N(S(=O)(=O)c2ccc(OC)cn2)c2ccc(C#N)cc21` (racemic) [Example 176, (±)-5-Cyano-3-(6-chloro-2-ethoxy-pyridin-3-yl)-1-(5-methoxy-pyridine-2-sulfonyl-3-(4-piperidin-4-yl-piperazin-1-yl)-2,3-dihydro-1H-indol-2-one] showed a Ki of under 10 nM. With `CCOc1ccc(OC)cc1C1(N2CCN(c3ccnc(C)c3)CC2)C(=O)N(S(=O)(=O)c2ccc(OC)cn2)c2ccc(C#N)cc21` (racemic) [Example 35, (±)-5-Cyano-3-(2-ethoxy-5-methoxyphenyl)-1-(5-methoxypyridine-2-sulfonyl)-3-[4-(2-methylpyridin-4-yl)piperazin-1-yl]-2,3-dihydro-1H-indol-2-one] the Ki was under 10 nM. With `CCOc1cc(F)ccc1C1(N2CCCN(c3ccncc3)CC2)C(=O)N(S(=O)(=O)c2ccc(OC)cn2)c2ccc(C#N)cc21` (racemic) [Example 147, (±)-5-Cyano-3-(2-ethoxy-4-fluoro-phenyl)-1-(5-methoxy-pyridine-2-sulfonyl)-3-(4-pyridin-4-yl-[1,4]diazepan-1-yl)-2,3-dihydro-1H-indol-2-one] the Ki was 10 to 50 nM. In the case of `CCOc1nc(Cl)ccc1C1(N2CCN(c3ccnc(C(C)C)c3)CC2)C(=O)N(S(=O)(=O)c2ccc(OC)cn2)c2ccc(C#N)cc21` (racemic) [Example 167, (±)-5-Cyano-3-(6-chloro-2-ethoxy-pyridin-3-yl)-3-[4-(2-isopropyl-pyridin-4-yl)-piperazin-1-yl]-1-(5-methoxy-pyridine-2-sulfonyl)-2,3-dihydro-1H-indol-2-one], the Ki is reported as 10 to 50 nM. `CCOc1nc(Cl)ccc1C1(N2CCN(c3ccncc3)CC2)C(=O)N(S(=O)(=O)c2ccc(C)cn2)c2ccc(C#N)cc21` (racemic) [Example 23, (±)-5-Cyano-3-(6-chloro-2-ethoxypyridin-3-yl)-1-(5-methylpyridine-2-sulfonyl)-3-(4-pyridin-4-ylpiperazin-1-yl)-2,3-dihydro-1H-indol-2-one] showed a Ki of 10 to 50 nM. In the case of `CCOc1ccc(OC)cc1C1(N2CCC(C3CCNCC3)CC2)C(=O)N(S(=O)(=O)c2ccc(OC)cn2)c2ccc(C#N)cc21` (racemic) [Example 181, (±)-5-Cyano-3-[4,4′]bipiperidinyl-1-yl-3-(2-ethoxy-5-methoxy-phenyl)-1-(5-methoxy-pyridine-2-sulfonyl)-2,3-dihydro-1H-indol-2-one], the Ki is reported as under 10 nM. In the case of `CCOc1ccccc1C1(N2CCN(c3ccncc3)CC2)C(=O)N(S(=O)(=O)c2ccc(OC)cn2)c2ccc(C#N)cc21` (single isomer, unassigned; (+)) [Example 64, (+)-5-Cyano-3-(2-ethoxyphenyl)-1-(5-methoxypyridine-2-sulfonyl)-3-(4-pyridin-4-yl-piperazin-1-yl)-2,3-dihydro-1H-indol-2-one], the Ki is reported as under 10 nM. With `CCOc1cc(F)ccc1C1(N2CCN(c3ccncc3)CC2)C(=O)N(S(=O)(=O)c2ccc(C)cn2)c2ccc(C#N)cc21` (racemic) [Example 49, (±)-5-Cyano-3-(2-ethoxy-4-fluorophenyl)-1-(5-methylpyridine-2-sulfonyl)-3-(4-pyridin-4-ylpiperazin-1-yl)-2,3-dihydro-1H-indol-2-one] the Ki was 10 to 50 nM. In the case of `CCOc1cc(OC)ccc1C1(N2CCC(N3CCNCC3)CC2)C(=O)N(S(=O)(=O)c2ccc(OC)cn2)c2ccc(C#N)cc21` (racemic) [Example 174, (±)-5-Cyano-3-(2-ethoxy-4-methoxy-phenyl)-1-(5-methoxy-pyridine-2-sulfonyl)-3-(4-piperazin-1-yl-piperidin-1-yl)-2,3-dihydro-1H-indol-2-one], the Ki is reported as under 10 nM. `CCOc1ccccc1C1(N2CCN(c3ccnc(C)c3)CC2)C(=O)N(S(=O)(=O)c2ccc(OC)cn2)c2ccc(C#N)cc21` (racemic) [Example 79, (±)-5-Cyano-3-(2-ethoxyphenyl)-1-(5-methoxypyridine-2-sulfonyl)-3-[4-(2-methyl-pyridin-4-yl)piperazin-1-yl]-2,3-dihydro-1H-indol-2-one] showed a Ki of under 10 nM. `Cc1cccnc1C1(N2CCN(c3ccncc3)CC2)C(=O)N(S(=O)(=O)c2cccc3cccnc23)c2ccc(Cl)cc21` (racemic) [Example 9, (±)-5-Chloro-3-(3-methylpyridin-2-yl)-3-(4-pyridin-4-ylpiperazin-1-yl)-1-(quinoline-8-sulfonyl)-1,3-dihydroindol-2-one] showed a Ki of 10 to 50 nM. With `CCOc1ccccc1C1(N2CCN(c3ccnc(CC)c3)CC2)C(=O)N(S(=O)(=O)c2cccc3cccnc23)c2ccc(C#N)cc21` (racemic) [Example 56, (±)-5-Cyano-3-(2-ethoxyphenyl)-3-[4-(2-ethylpyridin-4-yl)piperazin-1-yl]-1-(quinoline-8-sulfonyl)-2,3-dihydro-1H-indol-2-one] the Ki was 10 to 50 nM. With `CCOc1ccc(OC)cc1C1(N2CCCN(c3ccnc(C)c3)CC2)C(=O)N(S(=O)(=O)c2ccc(OC)cn2)c2ccc(C#N)cc21` (racemic) [Example 65, (±)-5-Cyano-3-(2-ethoxy-5-methoxyphenyl)-1-(5-methoxypyridine-2-sulfonyl)-3-[4-(2-methylpyridin-4-yl)-[1,4]diazepan-1-yl]-2,3-dihydro-1H-indol-2-one] the Ki was under 10 nM. Work on “(±)-5-Cyano-3-(6-chloro-2-ethoxypyridin-3-yl)-1-(2,4-dimethoxybenzenesulfonyl)-3-[4-(2-methylpyridin-4-yl)piperazin-1-yl]-2,3-dihydro-1H-indol-2-one [Example 28]” yielded a Ki of 10 to 50 nM. Molecule `CCOc1ccc(C)cc1C1(N2CCN(c3ccncc3)CC2)C(=O)N(S(=O)(=O)c2ccc(OC)c3cccnc23)c2ccc(C#N)cc21` (racemic) [Example 159, (±)-5-Cyano-3-(2-ethoxy-5-methyl-phenyl)-1-(5-methoxy-quinoline-8-sulfonyl)-3-(4-pyridin-4-yl-piperazin-1-yl)-2,3-dihydro-1H-indol-2-one] has a Ki of under 10 nM. With `CCOc1ccc(OC)cc1C1(N2CCN(c3ccncc3)CC2)C(=O)N(S(=O)(=O)c2ccc(OC)cn2)c2ccc(C#N)cc21` (racemic) [Example 82, (±)-5-Cyano-3-(2-ethoxy-5-methoxyphenyl)-1-(5-methoxypyridine-2-sulfonyl)-3-(4-pyridin-4-ylpiperazin-1-yl)-2,3-dihydro-1H-indol-2-one] the Ki was under 10 nM.
